Test results: the supplement of paper PMC11451515

Columns and labels:
Settings in all cases: 48 h
[1] = system: SEM cells; assay: cell viability relative to DMSO control; higher = less cytotoxic
How it was run: (§1)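 NOMO1 or SEM cells were plated at 500 cells/well and P12-Ichikawa cells at 1000 cells/well in 1536-well plates (5 μl), after each leukemia line had been adapted for at least four passages in each medium. Pin dosing delivered library compounds in DMSO at 11 threefold concentrations, 47 μM to 0.79 nM. CellTiter-Glo One luminescence was read after 48 h at 37°C. Viability is reported as a per-plate percentage of DMSO wells, with cell-free wells as background.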

[2] = system: NOMO1; assay: as above
How it was run: as §1

[3] = system: P12-Ichikawa; assay: as above
How it was run: as §1

[4] = system: SEM cells; assay: AUC of viability dose-response curve (% viability x log10 dose units); higher = less sensitive
How it was run: (§2)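 Medium-adapted leukemia cells in 1536-well plates, at 500 or 1000 cells/well, were incubated for 48 h at 37°C with library compounds in DMSO at 11 threefold doses from 47 μM to 0.79 nM. CellTiter-Glo One luminescence normalised per plate to DMSO and cell-free wells was fitted with a four-parameter log-logistic model over log10 doses. Area under the curve was integrated from this fit by trapezoidal rule, with curves beyond full viability scaled and failed quality-control curves removed.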

[5] = system: NOMO1; assay: as above
How it was run: as §2

[6] = system: P12-Ichikawa; assay: as above
How it was run: as §2

COC(=O)[C@@H]1CC2=CC(=O)CC[C@]2(C)[C@@]23O[C@@H]2C[C@@]2(C)[C@@H](CC[C@@]24CCC(=O)O4)[C@H]13
cell viability [%]
Settings | [1] | [2] | [3]
HPLM + 10% dialyzed FBS, 0.000781 µM | 87.9 | 93.6 | 98.1
HPLM + 10% dialyzed FBS, 0.00234 µM | 88.3 | 115 | 113
HPLM + 10% dialyzed FBS, 0.00702 µM | 94.7 | 107 | 104
HPLM + 10% dialyzed FBS, 0.0211 µM | 100 | 121 | 106
HPLM + 10% dialyzed FBS, 0.0632 µM | 96.1 | 116 | 112
HPLM + 10% dialyzed FBS, 0.19 µM | 121 | 133 | 117
HPLM + 10% dialyzed FBS, 0.569 µM | 113 | 122 | 117
HPLM + 10% dialyzed FBS, 1.71 µM | 115 | 136 | 115
HPLM + 10% dialyzed FBS, 5.12 µM | 115 | 124 | 120
HPLM + 10% dialyzed FBS, 15.4 µM | 102 | 123 | 121
HPLM + 10% dialyzed FBS, 46.1 µM | 111 | 119 | 112
RPMI 5 mM glucose + 10% FBS, 0.000781 µM | 105 | 95.3 | 107
RPMI 5 mM glucose + 10% FBS, 0.00234 µM | 108 | 91.4 | 109
RPMI 5 mM glucose + 10% FBS, 0.00702 µM | 113 | 112 | 112
RPMI 5 mM glucose + 10% FBS, 0.0211 µM | 98.1 | 106 | 124
RPMI 5 mM glucose + 10% FBS, 0.0632 µM | 116 | 104 | 123
RPMI 5 mM glucose + 10% FBS, 0.19 µM | 115 | 110 | 122
RPMI 5 mM glucose + 10% FBS, 0.569 µM | 97.4 | 116 | 123
RPMI 5 mM glucose + 10% FBS, 1.71 µM | 114 | 105 | 127
RPMI 5 mM glucose + 10% FBS, 5.12 µM | 122 | 109 | 130
RPMI 5 mM glucose + 10% FBS, 15.4 µM | 106 | 102 | 135
RPMI 5 mM glucose + 10% FBS, 46.1 µM | 121 | 112 | 128
RPMI 5 mM glucose + 10% dialyzed FBS, 0.000781 µM | 87.5 | 105 | 100
RPMI 5 mM glucose + 10% dialyzed FBS, 0.00234 µM | 93 | 121 | 117
RPMI 5 mM glucose + 10% dialyzed FBS, 0.00702 µM | 112 | 113 | 115
RPMI 5 mM glucose + 10% dialyzed FBS, 0.0211 µM | 101 | 121 | 112
RPMI 5 mM glucose + 10% dialyzed FBS, 0.0632 µM | 113 | 110 | 112
RPMI 5 mM glucose + 10% dialyzed FBS, 0.19 µM | 107 | 108 | 115
RPMI 5 mM glucose + 10% dialyzed FBS, 0.569 µM | 119 | 123 | 118
RPMI 5 mM glucose + 10% dialyzed FBS, 1.71 µM | 116 | 141 | 113
RPMI 5 mM glucose + 10% dialyzed FBS, 5.12 µM | 122 | 125 | 117
RPMI 5 mM glucose + 10% dialyzed FBS, 15.4 µM | 130 | 116 | 119
RPMI 5 mM glucose + 10% dialyzed FBS, 46.1 µM | 125 | 120 | 126

AUC of viability dose-response curve
Settings | [4] | [5] | [6]
HPLM + 10% dialyzed FBS | 444 | 456 | 458
RPMI 5 mM glucose + 10% FBS | 456 | 467 | 446
RPMI 5 mM glucose + 10% dialyzed FBS | 421 | 450 | 451

C=C[C@H]1CN2CCC1C[C@H]2[C@H](O)c1ccnc2ccccc12 (some centres undefined)
[1], RPMI 5 mM glucose + 10% dialyzed FBS
Settings | cell viability [%]
0.000781 µM | 123
0.00234 µM | 120
0.00702 µM | 122
0.0211 µM | 133
0.0632 µM | 126
0.19 µM | 138
0.569 µM | 132
1.71 µM | 133
5.12 µM | 108
15.4 µM | 110
46.1 µM | 55.1

AUC of viability dose-response curve
Settings | [4] | [5] | [6]
HPLM + 10% dialyzed FBS | 449 | 451 | 458
RPMI 5 mM glucose + 10% FBS | 441 | 461 | 451
RPMI 5 mM glucose + 10% dialyzed FBS | 452 | 433 | 461

Clc1ccc2c(N3CCN(CCCN4CCN(c5ccnc6cc(Cl)ccc56)CC4)CC3)ccnc2c1
cell viability [%], [1]
Settings | HPLM + 10% dialyzed FBS | RPMI 5 mM glucose + 10% dialyzed FBS
0.000781 µM | 96.6 | 118
0.00234 µM | 111 | 131
0.00702 µM | 125 | 112
0.0211 µM | 102 | 120
0.0632 µM | 120 | 119
0.19 µM | 120 | 128
0.569 µM | 135 | 134
1.71 µM | 130 | 146
5.12 µM | 133 | 130
15.4 µM | 102 | 109
46.1 µM | 84.5 | 69.9

AUC of viability dose-response curve
Settings | [4] | [5] | [6]
HPLM + 10% dialyzed FBS | 464 | 469 | 456
RPMI 5 mM glucose + 10% FBS | 459 | 457 | 448
RPMI 5 mM glucose + 10% dialyzed FBS | 459 | 465 | 442

O=C1CCC(N2C(=O)c3ccccc3C2=O)C(=O)N1 (centres undefined)
[1], RPMI 5 mM glucose + 10% FBS
Settings | cell viability [%]
0.000781 µM | 106
0.00234 µM | 114
0.00702 µM | 115
0.0211 µM | 112
0.0632 µM | 102
0.19 µM | 94.6
0.569 µM | 98.2
1.71 µM | 111
5.12 µM | 101
15.4 µM | 67.3
46.1 µM | 98.9

AUC of viability dose-response curve
Settings | [4] | [5] | [6]
HPLM + 10% dialyzed FBS | 454 | 436 | 443
RPMI 5 mM glucose + 10% FBS | 437 | 437 | 438
RPMI 5 mM glucose + 10% dialyzed FBS | 443 | 461 | 450
